Laboratory results reported in patent US8633238B2, “Lactams and uses thereof” (Joben Bio-Medical Co., Ltd., priority 2012, dated 2014).

Assays:
Assay type in all cases: cell-based, human
Conditions in all cases: 50 μM, 24 h
MDA-MB-231 cells = test: MTT antiproliferation assay, MDA-MB-231 cells
Protocol: (§1) Cell Lines and Culture. MCF-7, T-47D, and H184B5F5/M10 cells were cultured with 5% CO2 atmosphere at 37° C.; MDA-MB-231 cells were cultured without CO2 at 37° C. The MCF-7 cells were cultured in MEM containing 10% heat-inactivated FBS, 100 units/mL penicillin, 100 μg/mL streptomycin, and 1 mM sodium pyruvate. The T-47D cells were maintained in RPMI-1640 medium containing 10% heat inactivated FBS, 100 units/mL penicillin, and 100 μg/mL streptomycin. […]
(§2) Assay for Antiproliferation. To determine the antiproliferative effect, MCF-7, T-47D, MDA-MB-231, or H184B5F5/M10 cells were assessed using the MTT assay as previously reported (Ho, C. Y.; Kim, C, F.; Leung, K. N.; Fung, K. P.; Tse, T. F.; Chan, H.; Lau, C. B. Differential anti-tumor activity of Coriolus versicolor (Yunzhi) extract through p53- and/or Bcl-2-dependent apoptotic pathway in human breast cancer cells. Cancer Biol. Ther. 2005, 4, e11-e17). […] The absorbance at 570 nm was measured, and the viability of cells was calculated using the following equation: relative cell number (%)=(average absorbance of treated wells)×100/(average absorbance of blank vehicle wells).

MCF-7 cells = test: MTT antiproliferation assay, MCF-7 cells
Protocol: as §1, §2

T-47D cells = test: MTT antiproliferation assay, T-47D cells
Protocol: as §1, §2

Substance	percentage of inhibition (MDA-MB-231 cells) [%]	percentage of inhibition (MCF-7 cells) [%]	percentage of inhibition (T-47D cells) [%]
coixspirolactam D [compound 1]	47.4	30.2	–
coixspirolactam E [compound 2]	25.3	–	20.7
